# Legend:
# malaria = settings: cited from earlier work
# CB2 = CB2 (Homo sapiens, UniProt P34972); settings: cited from earlier work
# PGE-1 = settings: via PGE-1, comparable phenylbutazone; cited from earlier work
# [1] = in vivo; cited from earlier work
# [2] = in vivo; cited from earlier work; remark: listed apart in the source
# breast cancer cells = settings: cited from earlier work
# 5-HTEA = molecular target: T1, 5-HTEA (Mus musculus, UniProt Q64264); settings: via 5-HTEA; cited from earlier work
# T1 sequence (Q64264 1-421): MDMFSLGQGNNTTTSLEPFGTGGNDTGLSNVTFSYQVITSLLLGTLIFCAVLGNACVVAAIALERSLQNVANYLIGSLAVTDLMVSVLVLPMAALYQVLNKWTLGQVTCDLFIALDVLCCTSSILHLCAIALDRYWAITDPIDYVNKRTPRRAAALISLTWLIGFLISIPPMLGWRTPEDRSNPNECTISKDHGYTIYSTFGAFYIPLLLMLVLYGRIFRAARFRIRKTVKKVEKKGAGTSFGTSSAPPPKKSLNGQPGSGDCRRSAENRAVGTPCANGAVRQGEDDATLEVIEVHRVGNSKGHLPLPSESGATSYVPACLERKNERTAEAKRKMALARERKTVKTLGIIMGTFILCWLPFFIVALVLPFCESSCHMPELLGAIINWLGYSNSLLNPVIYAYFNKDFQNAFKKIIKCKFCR
# [3] = via inhalation; cited from earlier work
# Dermatophytes = settings: cited from earlier work
# acne bacteria = settings: cited from earlier work
# [4] = system: Pichia pastoris yeast cells; assay: Yeast cell growth after feeding transgenic Pichia cultures with individual terpenes; settings: terpene 100 μg/mL final concentration, cultures harvested 2 days post-feeding
# cannabinoid receptor = settings: cited from earlier work
# [5] = on inhalation in mice; cited from earlier work
# Leishmania = settings: cited from earlier work
# adenosine Aza = adenosine Aza (Mus musculus, UniProt Q60613); settings: via adenosine Aza; cited from earlier work
# Sequence of adenosine Aza (Q60613 whole entry): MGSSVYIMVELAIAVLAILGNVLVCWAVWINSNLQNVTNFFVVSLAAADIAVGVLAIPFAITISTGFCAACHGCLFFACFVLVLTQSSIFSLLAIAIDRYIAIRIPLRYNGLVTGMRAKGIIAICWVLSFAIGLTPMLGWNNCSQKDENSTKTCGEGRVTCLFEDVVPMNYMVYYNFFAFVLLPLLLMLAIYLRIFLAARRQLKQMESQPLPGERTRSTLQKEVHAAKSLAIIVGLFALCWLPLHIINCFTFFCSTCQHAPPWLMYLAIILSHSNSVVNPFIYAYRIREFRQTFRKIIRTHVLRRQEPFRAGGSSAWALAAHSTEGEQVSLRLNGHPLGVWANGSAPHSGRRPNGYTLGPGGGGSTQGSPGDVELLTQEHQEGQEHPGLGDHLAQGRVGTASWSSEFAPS
# glutamate = settings: in vivo; cited from earlier work
# [6] = in vivo; cited from earlier work; remark: listed apart in the source
# Acetylcholinesterase = Acetylcholinesterase (Homo sapiens, UniProt P22303); settings: aiding memory; cited from earlier work
# Sequence of Acetylcholinesterase (P22303 32-614): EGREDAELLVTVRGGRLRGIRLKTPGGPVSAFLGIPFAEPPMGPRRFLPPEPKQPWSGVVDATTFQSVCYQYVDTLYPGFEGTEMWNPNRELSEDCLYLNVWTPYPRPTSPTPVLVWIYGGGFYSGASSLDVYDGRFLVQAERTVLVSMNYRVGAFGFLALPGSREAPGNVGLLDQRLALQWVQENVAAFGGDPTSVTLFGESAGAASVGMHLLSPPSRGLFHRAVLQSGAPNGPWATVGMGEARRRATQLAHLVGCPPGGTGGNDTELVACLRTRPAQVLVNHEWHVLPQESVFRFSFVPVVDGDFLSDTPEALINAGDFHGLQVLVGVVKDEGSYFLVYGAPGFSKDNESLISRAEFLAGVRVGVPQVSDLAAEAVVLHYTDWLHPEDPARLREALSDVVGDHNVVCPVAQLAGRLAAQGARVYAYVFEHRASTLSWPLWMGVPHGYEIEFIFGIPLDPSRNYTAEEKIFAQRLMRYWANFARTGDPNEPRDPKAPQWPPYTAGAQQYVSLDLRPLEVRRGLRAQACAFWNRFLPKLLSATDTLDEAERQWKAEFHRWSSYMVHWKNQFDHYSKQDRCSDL
# PGE-3 = settings: via PGE-3; cited from earlier work
# [7] = in humans; cited from earlier work
# [8] = antagonized by naloxone; cited from earlier work
# PGE-2 = settings: via PGE-2; cited from earlier work
# [9] = in vivo; cited from earlier work; remark: listed apart in the source
# onychomycosis = settings: comparable to ciclopiroxolamine and sulcanazole; cited from earlier work
# platelet aggregation = settings: cited from earlier work
# Sequence of CB2 (P34972 whole entry): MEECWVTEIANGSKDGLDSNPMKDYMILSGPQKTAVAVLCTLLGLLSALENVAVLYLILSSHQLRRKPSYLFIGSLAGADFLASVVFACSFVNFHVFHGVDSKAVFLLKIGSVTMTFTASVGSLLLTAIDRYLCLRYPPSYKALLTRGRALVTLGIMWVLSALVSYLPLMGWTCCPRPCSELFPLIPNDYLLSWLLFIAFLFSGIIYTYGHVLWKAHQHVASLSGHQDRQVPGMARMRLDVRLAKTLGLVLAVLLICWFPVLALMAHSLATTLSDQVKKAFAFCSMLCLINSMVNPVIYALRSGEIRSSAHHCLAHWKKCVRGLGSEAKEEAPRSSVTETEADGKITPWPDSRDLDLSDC
structure (smiles),measurement,setting,value
C=C1CC/C=C(\C)CC[C@@H]2[C@@H]1CC2(C)C [β-Caryophyllene],Anti-malarial activity,malaria,Anti-malarial
same,Selective CB2 agonist (concentration given),CB2,100 nM
same,A1 (anti-inflammatory) activity,PGE-1,A1 via PGE-1 comparable phenylbutazone
same,Gastric cytoprotective activity,[1],Gastric cytoprotective
C=C(C)[C@H]1CC=C(C)CC1 [Limonene],Activity in gastro-aesophageal reflux,[2],"Gastro-aesophageal reflux (Harris, 2010)"
same,Apoptosis of breast cancer cells,breast cancer cells,Apoptosis of breast cancer cells (Vigushin
same,Anxiolytic activity,5-HTEA,Anxielytic
same,AD/immunostimulant activity,[3],Potent AD/immunostimulant via inhalation
same,Activity against dermatophytes,Dermatophytes,"Dermatophytes (Sanguinetti et al., 2007;"
same,Activity against acne bacteria,acne bacteria,"Active against acne bacteria (Kim et al., 2008)"
CC(C)=CCC/C(C)=C\CO [nerol],Effect on yeast cell growth rates,[4],no observed negative effect
CC(C)=CCCC(C)CCO (stereo not drawn) [citronellol],Effect on yeast cell growth rates,[4],no observed negative effect
"C=C(C)[C@@H]1CCC(C)=C[C@H]1c1c(O)cc(CCCCC)cc1O [CBD, cannabidiol]",Affinity for the cannabinoid receptor (in words),cannabinoid receptor,do not have significant affinity
C=CC(C)(O)CCC=C(C)C (stereo not drawn) [Linalool],Sedative activity,[5],Sedative on inhalation in mice
same,Anti-leishmanial activity,Leishmania,"Potent anti-leshmarial (do Socorro et al.,"
same,Analgesic activity,adenosine Aza,"Analgesic via adenosine Aza (Peana et al.,"
same,Anticonvulsant/anti-glutamate activity,glutamate,Anticonvulsant/anti-glutamate (Elisabetsky
same,Anti-anxiety activity,[6],Anti-anxiety
CC1=CCC2CC1C2(C)C (stereo not drawn) [α-Pinene],Acetylcholinesterase inhibition,Acetylcholinesterase,"Acetylcholinesterase inhibitor, aiding memory"
same,Anti-inflammatory activity,PGE-3,Anti-inflammatory via PGE-3
same,Bronchodilatory activity,[7],Bronchodilatory in humans
C=CC(=C)CCC=C(C)C [β-Myrcene],Analgesic activity,[8],"Analgesic, antagonized by naloxone"
same,Blocking of inflammation,PGE-2,Blocks inflammation via PGE-2
same,"Sedating, muscle relaxant, hypnotic activity",[9],"Sedating, muscle relaxant, hypnotic (da Vale"
C=C1CC[C@H]2O[C@]2(C)CC[C@@H]2[C@@H]1CC2(C)C [Caryophyllene Oxide],Antifungal activity in onychomycosis,onychomycosis,Antifungal in onychomycosis comparable to ciclopiroxolamine and sulcanazole
same,Effect on platelet aggregation,platelet aggregation,Decreases platelet aggregation
CC(C)=CCC[C@](C)(O)[C@@H]1CC=C(C)CC1 [alpha-bisabolol],Effect on yeast cell growth rates,[4],no observed negative effect
